Here are results for one compound from patent publication US11918565B1, “Treatment of post-operative pain via sciatic nerve block with sustained-release liposomal anesthetic compositions” (Pacira Pharmaceuticals, Inc., priority 2022, dated 2024).

The data set relates to subjects undergoing bunionectomy. The data set can be described thus: Safety: treatment-emergent adverse events, SAEs, AESIs, vital signs, EKG through POD14, clinical trial #1. The class given is in vivo, human. The source says:
Safety assessments included monitoring of AEs from the time of randomization through POD 14. Safety endpoints include incidence of treatment-emergent AEs and SAEs from the start of the nerve block procedure through POD 14.
Safety endpoints included incidence of treatment emergent adverse events (AEs) and serious adverse events (SAEs) from start of the nerve block procedure through POD14.
Adverse event verbatim terms are mapped to preferred terms and related system organ class using the Medical Dictionary for Regulatory Activities (MedDRA). Events that start prior to the start of study drug administration are identified in a by-subject listings. Incidence rates of TEAEs and the proportion of subject prematurely withdrawn from the study due to a TEAE is shown for each treatment arm. […] Incidence rates of SAEs is shown for each treatment arm.
An AE that occurred after administration of the study treatment was considered a treatment-emergent adverse event (TEAE). A continuous AE with varying grades of severity was to be recorded as 1 AE. The highest grade of severity experienced by that subject during the course of the continuous AE was to be recorded.
General guidelines are provided below: • Unrelated: A causal relationship between the study drug and the AE could be easily ruled out (e.g., based on the temporal sequence, absence of a reasonable pathophysiological mechanism, or direct evidence of actual cause). • Unlikely: A clinical event with a temporal relationship to study drug administration that made a causal relationship improbable and in which other drugs, chemicals, or underlying disease provided a plausible explanation. • Possible: A clinical event with a reasonable time sequence to administration of the study drug but that could also be explained by a concurrent disease or other drugs or chemicals. • Probable: A clinical event with a reasonable time sequence to administration of the study drug unlikely to be attributed to a concurrent disease or other drugs or chemicals and that followed a clinically reasonable response on withdrawal (dechallenge). • Definite: The pharmacological properties of the study drug(s) or of the substance class, and the course of the AE after dechallenge and, if applicable, after rechallenge, and/or specific test indicated involvement of the study drug(s) in the occurrence/worsening of the AE, and no indication of other causes existed.
Based on review of all peripheral nerve blocks, the following conditions were considered to be Adverse Events of Special Interest (AESIs) upon review of the AEs: • Falls • Persistent tingling • Persistent numbness • Persistent weakness • Hypersensitivity • Seizures • Tremors • Dizziness • Hematoma formation • Cardiovascular depression • Dyspnea • Cardiovascular arrest • Altered sensorium • Visual disturbances • Local anesthetic systemic toxicity
However, death, in and of itself, was not an AE; it was an outcome. The cause of death was the AE.

Counter-ions that a name gives are not always drawn.

`CCCCN1CCCCC1C(=O)Nc1c(C)cccc1C` (stereo not drawn) [BUP50, bupivacaine HCl]: where the note is “EXP133 on POD2, BUP50 on POD1”, the “subjects with a clinically significant abnormal EKG finding” value is given as 1 subject. In addition, under “EXP266: hypertension and pyrexia, BUP50: atrioventricular block second degree, both discontinued”, the “subjects with treatment-emergent SAEs related to study drug” value amounted to 1 subject. Besides, the “proportion of subjects with a treatment-related TEAE” value (EXP266 Part A, EXP133 and BUP50 Part A+B) is 2.4%. Further, the “subjects that had SAEs” value (EXPAREL (266 mg), bupivacaine HCl) is on record as 1 subject. Further, where the note is “human, in vivo”, the “AESI of atrioventricular block second degree considered possibly related to study drug” value stood at 1 subject; the “AESI of muscular weakness considered possibly related to study drug” value is 1 subject; the “TEAE constipation, subjects” value was found to be 31.7%; the “TEAE nausea, subjects” value is 23.2%. Where the note is “human, in vivo”, the “number of subjects with ≥1 TEAE related to study drug” value was found to be 2 subjects, the “subjects who had ≥1 AESI” value was 4 subjects and the “subjects with a moderate TEAE” value was found to be 12.2%. Further, the “proportion of subjects who reported TEAEs” value (through POD14) amounted to 54.9%.
